Assay results reported in patent US20110223675A1, “DRUG RELEASE MEANS FROM LIPOSOMES AND METHOD FOR EVALUATING RELEASABILITY” (TERUMO KABUSHIKI KAISHA, priority 2008, published 2011).
Where a name gives a salt, the structure may show the parent alone.

Test: drug releasability test of liposomes in a shift reagent solution
Type: physicochemical
Method: After 1:10 dilution of the sample with a stop solution, the drug, not contained in the liposomes, was separated by ultracentrifugation to provide a sample solution. Separately, 100 μl of a VCR aqueous solution having a different concentration was taken out, to which 900 μl of water was added. Moreover, this solution was diluted with water at 1:10 to provide a reference solution for calibration curve. The sample solution and reference solution were subjected to quantitative determination under the HPLC conditions indicated before with respect to the VCR determination except that an injected amount was at 50 μl only in this determination method.
After dilution of the sample with a stop solution at 1:10, the drug, not contained in the liposomes, was separated by ultracentrifugation. 1 ml of a 0.1 mol/l dihydrogen sodium phosphate solution having a pH of 3.0 was added to and mixed with 1 ml of a supernatant of the sample obtained after the ultracentrifugation to provide a sample solution. Separately, 1 ml of a 0.1 mol/l dihydrogen sodium phosphate solution having a pH of 3.0 was added to and mixed with 1 ml of/a DXR solution having a different concentration to prepare a reference solution for calibration curve. The sample solution and reference solution were subjected to measurement under HPLC conditions indicated with respect to the DXR determination.
Release rate (%)=amount of released drug/total drug amount×100
Ammonium acetate was dissolved so as to make ammonium ion concentrations of 5, 20, 25, 50 and 100 mM and the pH of the solutions was adjusted to 7.0 by use of a 0.1 M sodium hydroxide test solution. Moreover, sodium chloride was added to the solutions so that an osmotic pressure thereof was made at 300 mOsm, thereby providing shift reagent solutions.
The liposomes shown in Preparatory Example 1 were diluted with the shift reagent solution at 1:10 and heated to 37° C. 2.5, 5, 10, 15 and 30 minutes after commencement of the heating, samples were taken out. It is to be noted that the samples were stored under ice cooling before use. The quantitative determination of released VCR was made according to the method described hereinbefore.
Ammonium acetate was dissolved so as to make an ammonium ion concentration of 50 mM, followed by controlling the pH of the solution at 4.0, 5.0, 6.0, 7.0 and 8.0 by use of a 1 M sodium hydroxide test solution. […]
The liposomes shown in Preparatory Example 1 were diluted with the shift reagent solution at 1:10 and heated at 37° C. […] The released VCR was quantitatively determined by the method set out hereinbefore. […]
The liposomes shown in Preparatory Example 1 were diluted with the shift reagent solution at 1:10 and heated at 37° C. […] The quantitative determination of the released VCR was made according to the method set out hereinbefore. […]

| Compound | DXR releasability (250 mM ethylenediamine/phosphate buffer solution pH 7.4, 37° C., 0-4 hours) | VCR releasability versus pH of shift reagent solution (LIP1, 50 mM ammonium acetate, pH 4.0-8.0, 300 mOsm, 37° C.) | VCR release versus osmotic pressure of shift reagent solution (LIP1, 50 mM ammonium acetate, pH 7.0, 100-750 mOsm, 37° C.) | VCR release with amino compounds as shift reagent (LIP2, 50 mM 2-aminoethanol, ethylenediamine or diethylamine, pH 7.4, 37° C.) |
| --- | --- | --- | --- | --- |
| COc1cccc2c1C(=O)c1c(O)c3c(c(O)c1C2=O)C[C@@](O)(C(=O)CO)C[C@@H]3O[C@H]1C[C@H](N)[C@H](O)[C@H](C)O1 [DXR, Doxorubicin hydrochloride] | could be released | – | – | – |
| CC[C@]1(O)C[C@H]2CN(CCc3c([nH]c4ccccc34)[C@@](C(=O)OC)(c3cc4c(cc3OC)N(C=O)[C@H]3[C@@](O)(C(=O)OC)[C@H](OC(C)=O)[C@]5(CC)C=CCN6CC[C@]43[C@@H]65)C2)C1 [VCR, Vincristine sulfate] | – | promoted with increasing pH | a smaller osmotic pressure of the shift reagent solution leads to more promoted release | can be released |
